# Columns and labels:
# Experiment in all cases: relative viability (nuclei count vs DMSO), 5 days (fraction); higher = more cells survive
# EKVX = tested on: EKVX
# Summary of the method: (§1)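 Lung cancer cell lines, seeded in 1536-well plates, were treated the following day by pin tool with a single drug or with five library-drug doses (not always all listed) in √10 steps on top of a fixed anchor-drug dose. Cells were fixed and nuclei stained in one step after 5 days, and nuclei were counted. Relative viability is the nuclei count for treated wells divided by that for vehicle wells, reported as medians of duplicate plates.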
# NCI-H1993 = tested on: NCI-H1993
# Summary of the method: as §1
# NCI-H838 = tested on: NCI-H838
# Summary of the method: as §1
# BEN = tested on: BEN
# Summary of the method: as §1
# NCI-H1666 = tested on: NCI-H1666
# Summary of the method: as §1
# PC-3 [JPC-3] = tested on: PC-3 [JPC-3]
# Summary of the method: as §1
# LC-2-ad = tested on: LC-2-ad
# Summary of the method: as §1
# NCI-H460 = tested on: NCI-H460
# Summary of the method: as §1
# LCLC-97TM1 = tested on: LCLC-97TM1
# Summary of the method: as §1
# SW 1573 = tested on: SW 1573
# Summary of the method: as §1
# LU99A = tested on: LU99A
# Summary of the method: as §1
# NCI-H1355 = tested on: NCI-H1355
# Summary of the method: as §1
# NCI-H1793 = tested on: NCI-H1793
# Summary of the method: as §1
# A-427 = tested on: A-427
# Summary of the method: as §1
# NCI-H520 = tested on: NCI-H520
# Summary of the method: as §1
# NCI-H2228 = tested on: NCI-H2228
# Summary of the method: as §1
# LOU-NH91 = tested on: LOU-NH91
# Summary of the method: as §1
# NCI-H1650 = tested on: NCI-H1650
# Summary of the method: as §1
# NCI-H23 = tested on: NCI-H23
# Summary of the method: as §1
# NCI-H1915 = tested on: NCI-H1915
# Summary of the method: as §1
# RERF-LC-KJ = tested on: RERF-LC-KJ
# Summary of the method: as §1
# NCI-H2347 = tested on: NCI-H2347
# Summary of the method: as §1
smiles,measurement,setting,value
O=C(O)CCCCC(CCSCc1ccccc1)SCc1ccccc1 (centres undefined) [CPI-613] + CC1(C)CCC(c2ccc(Cl)cc2)=C(CN2CCN(c3ccc(C(=O)NS(=O)(=O)c4ccc(N[C@H](CCN5CCOCC5)CSc5ccccc5)c(S(=O)(=O)C(F)(F)F)c4)cc3)CC2)C1 [Navitoclax] (partner 0.5 µM),relative viability,EKVX; first compound 5 µM,0.945
same,relative viability,EKVX; first compound 15.81 µM,0.875
same,relative viability,EKVX; first compound 50 µM,0.898
same,relative viability,EKVX; first compound 158.11 µM,0.483
same,relative viability,EKVX; first compound 500 µM,0.951
same,relative viability,NCI-H1993; first compound 5 µM,0.917
same,relative viability,NCI-H1993; first compound 15.81 µM,0.917
same,relative viability,NCI-H1993; first compound 50 µM,1.06
same,relative viability,NCI-H1993; first compound 158.11 µM,0.64
same,relative viability,NCI-H1993; first compound 500 µM,0.408
same,relative viability,NCI-H838; first compound 5 µM,1.12
same,relative viability,NCI-H838; first compound 15.81 µM,1.01
same,relative viability,NCI-H838; first compound 50 µM,1.03
same,relative viability,NCI-H838; first compound 158.11 µM,0.39
same,relative viability,NCI-H838; first compound 500 µM,0.113
same,relative viability,BEN; first compound 5 µM,0.0595
same,relative viability,BEN; first compound 15.81 µM,0.0465
same,relative viability,BEN; first compound 50 µM,0.0686
same,relative viability,BEN; first compound 158.11 µM,0.0624
same,relative viability,BEN; first compound 500 µM,0.0516
same,relative viability,NCI-H1666; first compound 5 µM,0.944
same,relative viability,NCI-H1666; first compound 15.81 µM,1.16
same,relative viability,NCI-H1666; first compound 50 µM,1.03
same,relative viability,NCI-H1666; first compound 158.11 µM,0.296
same,relative viability,NCI-H1666; first compound 500 µM,0.212
same,relative viability,PC-3 [JPC-3]; first compound 5 µM,0.819
same,relative viability,PC-3 [JPC-3]; first compound 15.81 µM,0.7
same,relative viability,PC-3 [JPC-3]; first compound 50 µM,0.696
same,relative viability,PC-3 [JPC-3]; first compound 158.11 µM,0.448
same,relative viability,PC-3 [JPC-3]; first compound 500 µM,0.469
same,relative viability,LC-2-ad; first compound 5 µM,0.431
same,relative viability,LC-2-ad; first compound 15.81 µM,0.354
same,relative viability,LC-2-ad; first compound 50 µM,0.297
same,relative viability,LC-2-ad; first compound 158.11 µM,0.0601
same,relative viability,LC-2-ad; first compound 500 µM,0.0074
same,relative viability,NCI-H460; first compound 5 µM,1.12
same,relative viability,NCI-H460; first compound 15.81 µM,1.09
same,relative viability,NCI-H460; first compound 50 µM,1.03
same,relative viability,NCI-H460; first compound 158.11 µM,0.29
same,relative viability,NCI-H460; first compound 500 µM,0.0105
same,relative viability,LCLC-97TM1; first compound 5 µM,0.299
same,relative viability,LCLC-97TM1; first compound 15.81 µM,0.502
same,relative viability,LCLC-97TM1; first compound 50 µM,0.658
same,relative viability,LCLC-97TM1; first compound 158.11 µM,0.079
same,relative viability,LCLC-97TM1; first compound 500 µM,0.0431
same,relative viability,SW 1573; first compound 5 µM,0.871
same,relative viability,SW 1573; first compound 15.81 µM,0.962
same,relative viability,SW 1573; first compound 50 µM,0.792
same,relative viability,SW 1573; first compound 158.11 µM,0.819
same,relative viability,SW 1573; first compound 500 µM,0.904
same,relative viability,LU99A; first compound 5 µM,0.631
same,relative viability,LU99A; first compound 15.81 µM,0.77
same,relative viability,LU99A; first compound 50 µM,0.816
same,relative viability,LU99A; first compound 158.11 µM,0.142
same,relative viability,LU99A; first compound 500 µM,0.0335
same,relative viability,NCI-H1355; first compound 5 µM,0.993
same,relative viability,NCI-H1355; first compound 15.81 µM,0.988
same,relative viability,NCI-H1355; first compound 50 µM,1
same,relative viability,NCI-H1355; first compound 158.11 µM,0.593
same,relative viability,NCI-H1355; first compound 500 µM,0.128
same,relative viability,NCI-H1793; first compound 5 µM,0.393
same,relative viability,NCI-H1793; first compound 50 µM,0.346
same,relative viability,NCI-H1793; first compound 158.11 µM,0.363
same,relative viability,NCI-H1793; first compound 500 µM,0.1
same,relative viability,A-427; first compound 5 µM,0.974
same,relative viability,A-427; first compound 15.81 µM,0.919
same,relative viability,A-427; first compound 50 µM,0.829
same,relative viability,A-427; first compound 158.11 µM,0.342
same,relative viability,A-427; first compound 500 µM,0.273
same,relative viability,NCI-H520; first compound 5 µM,0.932
same,relative viability,NCI-H520; first compound 15.81 µM,1.1
same,relative viability,NCI-H520; first compound 50 µM,1.18
same,relative viability,NCI-H520; first compound 158.11 µM,0.355
same,relative viability,NCI-H520; first compound 500 µM,0.154
same,relative viability,NCI-H2228; first compound 5 µM,1.04
same,relative viability,NCI-H2228; first compound 15.81 µM,0.755
same,relative viability,NCI-H2228; first compound 50 µM,0.758
same,relative viability,NCI-H2228; first compound 158.11 µM,0.297
same,relative viability,NCI-H2228; first compound 500 µM,0.0138
same,relative viability,LOU-NH91; first compound 5 µM,0.683
same,relative viability,LOU-NH91; first compound 15.81 µM,0.653
same,relative viability,LOU-NH91; first compound 50 µM,0.664
same,relative viability,LOU-NH91; first compound 158.11 µM,0.682
same,relative viability,LOU-NH91; first compound 500 µM,0.579
same,relative viability,NCI-H1650; first compound 5 µM,1.17
same,relative viability,NCI-H1650; first compound 15.81 µM,1.25
same,relative viability,NCI-H1650; first compound 50 µM,1.08
same,relative viability,NCI-H1650; first compound 158.11 µM,0.16
same,relative viability,NCI-H1650; first compound 500 µM,0.034
same,relative viability,NCI-H23; first compound 5 µM,0.858
same,relative viability,NCI-H23; first compound 15.81 µM,0.711
same,relative viability,NCI-H23; first compound 50 µM,0.801
same,relative viability,NCI-H23; first compound 158.11 µM,0.564
same,relative viability,NCI-H23; first compound 500 µM,0.027
same,relative viability,NCI-H1915; first compound 5 µM,0.781
same,relative viability,NCI-H1915; first compound 15.81 µM,0.778
same,relative viability,NCI-H1915; first compound 50 µM,0.724
same,relative viability,NCI-H1915; first compound 158.11 µM,0.552
same,relative viability,NCI-H1915; first compound 500 µM,0.55
same,relative viability,RERF-LC-KJ; first compound 5 µM,1.01
same,relative viability,RERF-LC-KJ; first compound 15.81 µM,0.747
same,relative viability,RERF-LC-KJ; first compound 50 µM,1.27
same,relative viability,RERF-LC-KJ; first compound 158.11 µM,0.964
same,relative viability,RERF-LC-KJ; first compound 500 µM,0.756
same,relative viability,NCI-H2347; first compound 5 µM,0.748
same,relative viability,NCI-H2347; first compound 15.81 µM,0.747
same,relative viability,NCI-H2347; first compound 50 µM,0.702
same,relative viability,NCI-H2347; first compound 158.11 µM,0.768
same,relative viability,NCI-H2347; first compound 500 µM,0.734
